{"source": "patent US7199286B2", "about": "“Plant-derived novel pathogen and SAR-induction chemical induced promoters, and fragments thereof” (Syngenta Participations AG, priority 1999, dated 2007)", "key": {"[1]": {"test_system": "NI16 RNA", "assay": "Induction of NI16 mRNA by SA and BTH spray, RNA blot hybridization", "format": "in vivo, Arabidopsis", "details": "WS-O plants sprayed with 5 mM SA or 300 μm BTH", "procedure": "RNA is prepared from 4 week old Wassilewskija (WS—O) plants, that are either sprayed with water, a 5 mM solution of sodium salicylate (SA), or a 300 μm solution of benzo-(1,2,3)-thiadiazole-7-carbothioic acid S-methyl ester (BTH). […] RNA extractions and RNA blot hybridizations are performed as described previously by Ausubel et al. (1987). NI16 RNA is induced 5–10 fold within 15 minutes of SA or BTH induction and reaches a peak of approximately 50 fold induction within 2 hours of SA treatment and 25 fold induction with BTH treatment."}, "[2]": {"test_system": "NI16 promoter fragment 962 bp", "assay": "GUS florescence assay of promoter::GUS plants after SA application, NI16 962 bp fragment", "format": "in vivo, Arabidopsis", "details": "5 mM SA spray", "description": "A binary promoter::reporter plasmid (pNOV2374) for Arabidopsis transformation was constructed. The regulatory/promoter sequence was fused to the GUS reporter gene (Jefferson et al. (1987) EMBO J 6: 3901-3907) by recombination using […] Technology according to the manufacturer's protocol as described in the Instruction Manual (LifeTechnologies, Rockville, Md.). The construct was then transformed into Agrobacterium tumefaciens strains by electroporation. pNOV2374 is a binary vector with a VS1 origin of replication, a copy of the Agrobacterium virg gene in the backbone, and a Basta® resistance selectable marker cassette between the left and right border sequences of the T-DNA. The Basta® selectable marker cassette comprises the Agrobacterium tumefaciens manopine synthase promoter (AtMas) (Barker et al., Plant Mol. Biol. 2, 335-350 (1983)) operably linked to the gene encoding Basta® resistance (i.e., the “BAR” gene, phosphinothricin acetyl transferase) (White et al., Nucl Acids Res 18: 1062 (1990)) and the 35S terminator. The AtMas promoter, the BAR coding sequence, and the 35S terminator are located at nt 4211 to nt 4679, nt 4680 to nt 5228, and nt 5263 to nt 5488, respectively, of pNOV2374. The vector contains […] recombination components, which were introduced into the binary vector backbone by ligating a blunt-ended cassette containing attR sites, ccdB, and a cholramphenicol resistance marker using the […] Vector Conversion System (LifeTechnologies, Rockville, Md.). The […] cassette was located between nt 126 and 1818 of pNOV2374. The promoter cassettes were inserted through an LR recombination reaction whereby the DNA sequence of pNOV2374 between nt 126 and nt 1818 were removed and replaced with the promoter of interest flanked by att sequences. […] The GIG gene (SEQ ID NO:29) contains the ST-LS1 intron from Solanum tuberosum at nt 385 to nt 576 of GUS (obtained from Dr. Stanton […], Purdue University, and described in Narasimhulu, et al. (1996) Plant Cell 8: 873-886.). […] The treatment was applied as a fine mist to the leaves. […] For quantitative analysis of promoter activity following induction treatments or in various Arabidopsis tissues and organs, GUS expression is measured florometrically. Tissue samples were harvested and ground in ice cold GUS extraction buffer (50 mM Na2HPO4 pH 7.0, 5 mM DTT, 1 mM Na2EDTA, 0.1% TritonX100, 0.1% sarcosyl). Ground samples were spun in a microfuge at 10,000 rpm for 15 minutes at 4° C. Following centrifugation, the supernatant was removed for the GUS assay and for a protein concentration determination. To measure GUS activity, the plant extract was assayed in GUS assay buffer (50 mM Na2HPO4 pH 7.0, 5 mM DTT, 1 mM Na2EDTA, 0.1% TritonX100, 0.1% sarcosyl, 1 mM 4-Methylumbelliferyl-beta-D-glucuronic acid dihydrate (MUG)), pre-warmed to 37° C. Reactions were incubated, and 100 uL aliquots were removed at 10 minute intervals over 30 minutes to stop the reaction by adding the 100 uL aliquots to tubes containing 900 uL of 2% Na2CO3. The stopped reactions were then read on a Tecan Spectroflourometer at 365 nm excitation and 455 emission wavelengths. Protein concentrations were determined using the BCA assay following the manufacturer's protocol. GUS activity is expressed as pmol MU/mg protein/min."}}}
{"smiles": "O=C(O)c1ccccc1O", "note": "[SA, salicylic acid]", "values": [{"measurement": "time NI16 transcript remains highly induced after treatment", "setting": "[1]", "value": "up to 24 hours"}, {"measurement": "NI16 RNA peak induction", "setting": "[1]; peak, within 2 hours of SA treatment", "value": "approximately 50 fold"}, {"measurement": "GUS Activity Induced by SA", "setting": "[2]; 2 h", "value": 86.8, "unit": "pmol/mg protein/min"}, {"measurement": "GUS activity Fold-change relative to T0 (uninduced)", "setting": "[2]; 2 h", "value": 2.2, "unit": "fold"}, {"measurement": "GUS Activity Induced by SA", "setting": "[2]; 4 h", "value": 260.8, "unit": "pmol/mg protein/min"}, {"measurement": "GUS activity Fold-change relative to T0 (uninduced)", "setting": "[2]; 4 h", "value": 6.6, "unit": "fold"}, {"measurement": "GUS Activity Induced by SA", "setting": "[2]; 8 h", "value": 467.7, "unit": "pmol/mg protein/min"}, {"measurement": "GUS Activity Induced by SA", "setting": "[2]; 24 h", "value": 1457.5, "unit": "pmol/mg protein/min"}, {"measurement": "GUS activity Fold-change relative to T0 (uninduced)", "setting": "[2]; 24 h", "value": 36.7, "unit": "fold"}]}
